# Where “and” joins values, the source holds several entries; their conditions need not be identical. Equal entries are not always repeated. Toxic doses and inconclusive results are not listed.
# Test system: BDF1 mice, P388 leukemia ip, median survival T/C
# Assay: NCI In Vivo Anticancer Drug Screen. Data for tumor model P388 Leukemia (intraperitoneal) in B6D2F1 (BDF1) mice
# Conditions: endpoint: median survival time, higher = longer survival
# Method in brief: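 Reported as T/C, where T is the survival measurement in dosed animals and C the same measurement in vehicle controls.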
# [1] = dose: 6.25 mg/kg/injection, schedule: Q01DX009 (ip), vehicle: water
# [2] = dose: 12.5 mg/kg/injection, schedule: Q01DX009 (ip), vehicle: water
# [3] = dose: 25.0 mg/kg/injection, schedule: Q01DX009 (ip), vehicle: water
# [4] = dose: 200.0 mg/kg/injection, schedule: Q04DX003 (ip), vehicle: Klucel (hydroxypropylcellulose) (HPC)
# [5] = dose: 25.0 mg/kg/injection, schedule: Q04DX003 (ip), vehicle: water
# [6] = dose: 50.0 mg/kg/injection, schedule: Q01DX009 (ip), vehicle: water
# [7] = dose: 50.0 mg/kg/injection, schedule: Q04DX003 (ip), vehicle: water
# [8] = dose: 100.0 mg/kg/injection, schedule: Q01DX009 (ip), vehicle: water
# [9] = dose: 100.0 mg/kg/injection, schedule: Q04DX003 (ip), vehicle: water
# [10] = dose: 200.0 mg/kg/injection, schedule: Q04DX003 (ip), vehicle: water
# [11] = dose: 100.0 mg/kg/injection, schedule: Q01DX009 (ip), vehicle: saline with Tween-80
# [12] = dose: 200.0 mg/kg/injection, schedule: Q01DX009 (ip), vehicle: saline with Tween-80
# [13] = dose: 50.0 mg/kg/injection, schedule: Q04DX003 (ip), vehicle: Klucel (hydroxypropylcellulose) (HPC)
# [14] = dose: 50.0 mg/kg/injection, schedule: Q01DX009 (ip), vehicle: saline with Tween-80
# [15] = dose: 25.0 mg/kg/injection, schedule: Q01DX009 (ip), vehicle: saline
# [16] = dose: 50.0 mg/kg/injection, schedule: Q01DX009 (ip), vehicle: saline
# [17] = dose: 100.0 mg/kg/injection, schedule: Q01DX009 (ip), vehicle: saline
# [18] = dose: 200.0 mg/kg/injection, schedule: Q01DX009 (ip), vehicle: saline
smiles,measurement,setting,value
COc1cc2c[n+](C)c3c4cc5c(cc4ccc3c2cc1OC)OCO5,T/C,"dose: 1.0 mg/kg/injection, schedule: Q01DX009 (ip), vehicle: water",150 % of control
same,T/C,"dose: 4.0 mg/kg/injection, schedule: Q01DX009 (ip), vehicle: saline",161 % of control
same,T/C,"dose: 5.0 mg/kg/injection, schedule: Q01DX009 (ip), vehicle: saline",185 % of control
same,T/C,[1],182 % of control
same,T/C,"dose: 8.0 mg/kg/injection, schedule: Q01DX009 (ip), vehicle: saline",176 % of control
same,T/C,"dose: 10.0 mg/kg/injection, schedule: Q01DX005 (ip), vehicle: saline",154 % of control
same,T/C,"dose: 10.0 mg/kg/injection, schedule: Q01DX009 (ip), vehicle: saline",200 % of control
same,T/C,"dose: 10.0 mg/kg/injection, schedule: Q04DX003 (ip), vehicle: saline",185 % of control
same,T/C,"dose: 12.0 mg/kg/injection, schedule: Q01DX009 (ip), vehicle: water",177 % of control
same,T/C,[2],204 % of control
same,T/C,"dose: 20.0 mg/kg/injection, schedule: Q01DX005 (ip), vehicle: saline",158 % of control
same,T/C,"dose: 20.0 mg/kg/injection, schedule: Q04DX003 (ip), vehicle: saline",190 % of control
same,T/C,[3],100 % of control
same,T/C,"dose: 28.8 mg/kg/injection, schedule: Q04DX003 (ip), vehicle: Klucel (hydroxypropylcellulose) (HPC)",193 % of control
same,T/C,"dose: 40.0 mg/kg/injection, schedule: Q01DX005 (ip), vehicle: saline",183 % of control
same,T/C,"dose: 43.2 mg/kg/injection, schedule: Q04DX003 (ip), vehicle: Klucel (hydroxypropylcellulose) (HPC)",196 % of control
same,T/C,"dose: 48.0 mg/kg/injection, schedule: Q04DX003 (ip), vehicle: Klucel (hydroxypropylcellulose) (HPC)",200 % of control
same,T/C,"dose: 50.0 mg/kg/injection, schedule: Q04DX002 (ip), vehicle: Klucel (hydroxypropylcellulose) (HPC)",225 % of control and 153 % of control
same,T/C,"dose: 55.0 mg/kg/injection, schedule: Q04DX003 (ip), vehicle: other",172 % of control
same,T/C,"dose: 72.0 mg/kg/injection, schedule: Q04DX003 (ip), vehicle: Klucel (hydroxypropylcellulose) (HPC)",188 % of control
same,T/C,"dose: 80.0 mg/kg/injection, schedule: Q01DX005 (ip), vehicle: saline",103 % of control
same,T/C,"dose: 80.0 mg/kg/injection, schedule: Q01DX009 (ip), vehicle: saline",186 % of control
same,T/C,"dose: 80.0 mg/kg/injection, schedule: Q04DX003 (ip), vehicle: Klucel (hydroxypropylcellulose) (HPC)",200 % of control
same,T/C,"dose: 80.0 mg/kg/injection, schedule: Q04DX003 (ip), vehicle: saline",260 % of control
same,T/C,"dose: 92.0 mg/kg/injection, schedule: Q04DX003 (ip), vehicle: other",162 % of control
same,T/C,"dose: 120.0 mg/kg/injection, schedule: Q01DX009 (ip), vehicle: saline",95 % of control
same,T/C,"dose: 133.3 mg/kg/injection, schedule: Q04DX003 (ip), vehicle: Klucel (hydroxypropylcellulose) (HPC)",170 % of control
same,T/C,[4],160 % of control
Cc1cccc(OS(=O)(=O)c2ccccc2[N+](=O)[O-])c1,T/C,"dose: 100.0 mg/kg/injection, schedule: Q01DX001 (ip), vehicle: saline sonified",100 % of control
same,T/C,"dose: 200.0 mg/kg/injection, schedule: Q01DX001 (ip), vehicle: saline sonified",110 % of control
same,T/C,"dose: 400.0 mg/kg/injection, schedule: Q01DX001 (ip), vehicle: saline sonified",100 % of control
O=C(c1ccccc1)c1c(-c2ccccc2)c(C(=O)c2ccccc2)c2ccccc2c1Cl,T/C,[2],102 % of control
same,T/C,[3],113 % of control
same,T/C,[5],114 % of control
same,T/C,[6],102 % of control
same,T/C,[7],104 % of control
same,T/C,[8],109 % of control
same,T/C,[9],96 % of control
same,T/C,"dose: 200.0 mg/kg/injection, schedule: Q01DX009 (ip), vehicle: water",96 % of control
same,T/C,[10],100 % of control
same,T/C,"dose: 400.0 mg/kg/injection, schedule: Q01DX009 (ip), vehicle: water",102 % of control
same,T/C,"dose: 400.0 mg/kg/injection, schedule: Q04DX003 (ip), vehicle: water",98 % of control
CS(=O)(=O)Nc1cc(Cl)c(NS(C)(=O)=O)c(Cl)c1Cl,T/C,"dose: 100.0 mg/kg/injection, schedule: Q01DX001 (ip), vehicle: saline with Tween-80",100 % of control
same,T/C,"dose: 200.0 mg/kg/injection, schedule: Q01DX001 (ip), vehicle: saline with Tween-80",103 % of control
same,T/C,"dose: 400.0 mg/kg/injection, schedule: Q01DX001 (ip), vehicle: saline with Tween-80",100 % of control
CC(=O)NCCN=Cc1ccccc1,T/C,[11],112 % of control
same,T/C,[12],120 % of control
O=C(COc1ccc(Cl)c(Cl)c1)N(Cc1ccccc1)Cc1cccnc1,T/C,[13],86 % of control
same,T/C,"dose: 100.0 mg/kg/injection, schedule: Q04DX003 (ip), vehicle: Klucel (hydroxypropylcellulose) (HPC)",95 % of control
same,T/C,[4],104 % of control
O=c1[nH]c(=O)n(CCc2cccs2)cc1F,T/C,[14],106 % of control
same,T/C,[11],101 % of control
same,T/C,"dose: 100.0 mg/kg/injection, schedule: Q04DX003 (ip), vehicle: saline with Tween-80",94 % of control
same,T/C,[12],108 % of control
same,T/C,"dose: 200.0 mg/kg/injection, schedule: Q04DX003 (ip), vehicle: saline with Tween-80",108 % of control
same,T/C,"dose: 400.0 mg/kg/injection, schedule: Q01DX009 (ip), vehicle: saline with Tween-80",90 % of control
same,T/C,"dose: 400.0 mg/kg/injection, schedule: Q04DX003 (ip), vehicle: saline with Tween-80",92 % of control
C[N+](C)(C)c1ccc(/C=N\NC(=O)c2ccccc2)cc1,T/C,"dose: 12.5 mg/kg/injection, schedule: Q01DX009 (ip), vehicle: Klucel (hydroxypropylcellulose) (HPC)",105 % of control
same,T/C,"dose: 12.5 mg/kg/injection, schedule: Q04DX003 (ip), vehicle: Klucel (hydroxypropylcellulose) (HPC)",100 % of control
same,T/C,"dose: 25.0 mg/kg/injection, schedule: Q01DX009 (ip), vehicle: Klucel (hydroxypropylcellulose) (HPC)",105 % of control
same,T/C,"dose: 25.0 mg/kg/injection, schedule: Q04DX003 (ip), vehicle: Klucel (hydroxypropylcellulose) (HPC)",100 % of control
same,T/C,"dose: 50.0 mg/kg/injection, schedule: Q01DX009 (ip), vehicle: Klucel (hydroxypropylcellulose) (HPC)",105 % of control
same,T/C,[13],95 % of control
COc1cc(C)c(Cl)c(C)c1C#CC(=O)O,T/C,"dose: 100.0 mg/kg/injection, schedule: Q01DX001 (ip), vehicle: Klucel (hydroxypropylcellulose) (HPC)",115 % of control
same,T/C,"dose: 200.0 mg/kg/injection, schedule: Q01DX001 (ip), vehicle: Klucel (hydroxypropylcellulose) (HPC)",111 % of control
O=C(NC1CCCCC1)N(c1ccccc1)c1nnc(-c2cccc([N+](=O)[O-])c2)s1,T/C,[14],104 % of control
same,T/C,[11],95 % of control
same,T/C,[12],115 % of control
CC1Cc2ccccc2SC1(C)C (stereo not given),T/C,"dose: 12.5 mg/kg/injection, schedule: Q01DX009 (ip), vehicle: saline",101 % of control
same,T/C,[15],114 % of control
same,T/C,[16],115 % of control
NC(=S)N=Nc1ccc(O)c2c(O)ccc(O)c12,T/C,"dose: 6.3 mg/kg/injection, schedule: Q01DX009 (ip), vehicle: water",96 % of control
same,T/C,[2],94 % of control
same,T/C,[3],92 % of control
same,T/C,[6],86 % of control
CCOC(=O)CCN1CCOCC1,T/C,[17],100 % of control
same,T/C,"dose: 100.0 mg/kg/injection, schedule: Q04DX003 (ip), vehicle: saline",95 % of control
same,T/C,[18],100 % of control
same,T/C,"dose: 200.0 mg/kg/injection, schedule: Q04DX003 (ip), vehicle: saline",100 % of control
same,T/C,"dose: 400.0 mg/kg/injection, schedule: Q01DX009 (ip), vehicle: saline",100 % of control
same,T/C,"dose: 400.0 mg/kg/injection, schedule: Q04DX003 (ip), vehicle: saline",108 % of control
Nc1cc(OCc2ccccc2)cc(OCc2ccccc2)c1,T/C,[1],96 % of control
same,T/C,[2],96 % of control and 101 % of control
same,T/C,"dose: 12.5 mg/kg/injection, schedule: Q04DX003 (ip), vehicle: water",105 % of control
same,T/C,[3],99 % of control and 105 % of control
same,T/C,[5],99 % of control
same,T/C,[6],97 % of control and 98 % of control
same,T/C,[7],99 % of control
same,T/C,[8],92 % of control and 100 % of control
same,T/C,[9],106 % of control and 107 % of control and 108 % of control
same,T/C,[10],95 % of control and 96 % of control
CC12CCC(CC1)C(C)(C)O2,T/C,[15],106 % of control
same,T/C,[16],117 % of control
same,T/C,[17],106 % of control
same,T/C,[18],107 % of control

# — PubChem BioAssay AID328 (DTP/NCI, 2004)
